Data on 3 compounds can be found in patent publication US20110236326A1, “Skin Whitener” (Cognis IP Management GmbH, priority 2008, published 2011).

Structures are written as SMILES.

The subject of data set [1] is mushroom tyrosinase. The data set can be described thus: Mushroom tyrosinase inhibition assay. It counts as biochemical. The conditions noted are these: DOPA substrate, pH 6.8. The procedure:
In the melanin biosynthesis pathway, tyrosinase is a key enzyme catalyzing the initial steps: the oxidation of tyrosine into dihydroxyphenylalanine (DOPA) and of DOPA into Dopaquinone. In phosphate buffer at pH 6.8, DOPA is mixed with a range of concentration of the compound to be tested, and a control without compound. After addition of mushroom tyrosinase, oxidation of DOPA is recorded by measuring OD at 475 nm during 30 sec. The % of tyrosinase inhibition is expressed in % against control as a mean of 2-3 assays.

Data set [2] concerns Melanocytes (B16 cell line). The data set can be described thus: Melanogenesis inhibition assay (melanin level and cellular proteins). It counts as cell-based. To be noted: 3 days incubation; for Melanin level: B16 cells, OD 475 nm. The procedure: Melanocytes (B16 cell line) are inoculated in standard medium of cell culture with fetal calf serum (FCS). After an incubation of 3 days at 37° C. and CO2=5%, growth medium is exchanged for standard medium with a range of concentrations for the compound to be tested and a control without ingredient. After an incubation of 3 days, the level of melanin is measured by recording the optical density at 475 nm. After washing the cells by a balanced salt, and homogenization in a solution of 0.1 M NaOH, the number of viable cells is determined by the level of cellular proteins (Bradford's method).
The results are expressed in % against control (cell culture medium without compound) as a mean on 1 to 3 assays, each in triplicate.

As for `NNC(=O)Nc1ccccc1` [1-amino-3-phenylurea], the results for the “% of tyrosinase inhibition” value in data set [1] (dose 0.0001 % (w/v)), in data set [1] (dose 0.001 % (w/v)) and in data set [1] (dose 0.01 % (w/v)) were 31%, 55% and 89%, respectively. In addition, the Melanin level in data set [2] (dose 0.001 % (w/v)) is 79 %/control; in data set [2] (dose 0.003 % (w/v)) it was 47 %/control; in data set [2] (dose 0.01 % (w/v)), 19 %/control. Besides, the “Protein level (rate of cellular proteins, viable cells by Bradford's method)” value (shortened to “Protein level”) in data set [2] (dose 0.001 % (w/v)) is 95 %/control; in data set [2] (dose 0.003 % (w/v)), 94 %/control; in data set [2] (dose 0.01 % (w/v)), 104 %/control.
`Cc1ccc(NC(=O)NN)c(C)c1` [1-amino-3-(2,4-dimethylphenyl)urea]: in data set [2] (dose 0.001 % (w/v)), the Melanin level is 98 %/control and the “Protein level” value worked out at 103 %/control. In data set [2] (dose 0.003 % (w/v)), the Melanin level is 87 %/control and the “Protein level” value is reported as 99 %/control.
The like results for `CN(N)C(=O)Nc1ccccc1` [1-amino-1-methyl-3-phenylurea] were, in that order, 92 %/control, 102 %/control, 88 %/control and 99 %/control.
